Test results taken from PubChem BioAssay (NCI).
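In this assay, cells in 96-well plates receive the compound at five concentrations for 48 hours. Endpoints are linearly interpolated between the surrounding concentrations. The concentration for 50% growth inhibition is given as GI50. TGI: concentration producing complete growth inhibition.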 Where a SMILES comes first, the peptide text is derived from it. [ ]: non-standard residue; d: D form. The star is where a group is joined. ξ: configuration not given here. dIva = CC[C@@](C)(N)C(=O)O; Aib = CC(C)(N)C(=O)O; ξP = O=C(O)C1CCCN1; βAla = NCCC(=O)O; X5 = OCN*

Tests used:
Assay in all cases: DTP human tumour cell line panel, 48 h
ACHN renal = tested on: ACHN renal
COLO 205 colon = tested on: COLO 205 colon
NCI-H23 lung = tested on: NCI-H23 lung
OVCAR-4 ovarian = tested on: OVCAR-4 ovarian
OVCAR-3 ovarian = tested on: OVCAR-3 ovarian
NCI-H460 lung = tested on: NCI-H460 lung
SF-539 CNS = tested on: SF-539 CNS
U251 CNS = tested on: U251 CNS
HOP-92 NSCLC = tested on: HOP-92 NSCLC
LOX IMVI melanoma = tested on: LOX IMVI melanoma

| SMILES | GI50 (ACHN renal) [µM] | TGI (ACHN renal) [µM] | GI50 (COLO 205 colon) [µM] | TGI (COLO 205 colon) [µM] | GI50 (NCI-H23 lung) [µM] | TGI (NCI-H23 lung) [µM] | GI50 (OVCAR-4 ovarian) [µM] | TGI (OVCAR-4 ovarian) [µM] | GI50 (OVCAR-3 ovarian) [µM] | TGI (OVCAR-3 ovarian) [µM] | GI50 (NCI-H460 lung) [µM] | TGI (NCI-H460 lung) [µM] | GI50 (SF-539 CNS) [µM] | TGI (SF-539 CNS) [µM] | TGI (U251 CNS) [µM] | TGI (HOP-92 NSCLC) [µM] | TGI (LOX IMVI melanoma) [µM] | GI50 (U251 CNS) [µM] | GI50 (HOP-92 NSCLC) [µM] | GI50 (LOX IMVI melanoma) [µM] |
| --- | --- | --- | --- | --- | --- | --- | --- | --- | --- | --- | --- | --- | --- | --- | --- | --- | --- | --- | --- | --- |
| COc1cc(OC)c2c(c1Cl)O[C@]1(C2=O)C(OCc2ccccc2)=CC(=O)C[C@H]1C | 0.785 | > 100 | 0.43 | 1.69 | 1.02 | 39.5 | 7.16 | 73.3 | 0.986 | 11.4 | 0.401 | 12.6 | 0.884 | 9.28 | – | – | – | – | – | – |
| CC(=O)OC1(C#N)CC2OC1C1NC21 (stereo not drawn) | – | > 100 | – | > 100 | – | > 100 | – | > 100 | – | – | – | > 100 | – | > 100 | > 100 | > 100 | > 100 | – | – | – |
| COc1ccc(-c2cc(=O)c3cccnc3[nH]2)cc1 | – | > 100 | – | 52.5 | – | > 100 | – | > 100 | 29.9 | > 100 | 26.4 | 91.4 | – | > 100 | > 100 | – | > 100 | 54.1 | – | – |
| C(=NCCN=Cc1cccc2ccccc12)c1cccc2ccccc12 | – | > 100 | – | > 100 | – | > 100 | – | > 100 | – | – | – | > 100 | – | > 100 | > 100 | – | – | – | – | – |
| OCC(O)C(OC1OC(CO)C(O)C(O)C1O)c1nn(-c2ccc(Cl)cc2)c2nc3cc(Cl)ccc3nc12 (stereo not drawn) | – | > 100 | – | – | – | > 100 | – | > 100 | – | > 100 | – | > 100 | – | > 100 | > 100 | – | > 100 | – | – | – |
| O=C(Nc1ccc(N2CCNCC2)cn1)c1[nH]ncc1Nc1ncnc2sc3c(c12)CCC3 | – | – | 2.11 | 6.97 | 2.21 | 6.32 | – | – | 1.84 | 3.62 | 1.58 | 3.48 | – | – | – | > 100 | – | – | 4.69 | – |
| CC[C@@](C)(NC(=O)[C@H](C)NC(=O)CCNC(=O)C(C)(C)NC(=O)[C@H](C)NC(=O)[C@@H]1CCCN1C(=O)[C@@](C)(CC)NC(=O)[C@H](Cc1ccccc1)NC(=O)C1CCCN1C(=O)C(C)(C)NC(=O)C1CCCN1C(=O)C(C)(C)NC(C)=O)C(=O)NCCC(=O)N[C@@H](CC(C)C)C(=O)NC(C)(C)C(=O)NCCC(=O)N[C@@H](CC(C)C)C(=O)NC(C)(C)C(=O)NC(C)(C)C(=O)N[C@@H](CC(C)C)C(=O)NCCC(=O)NCO (stereo partly drawn) (Ac-[Aib][ξP][Aib][ξP]F[dIva]PA[Aib][βAla]A[dIva][βAla]L[Aib][βAla]L[Aib][Aib]L[βAla]-X5) | 0.199 | 0.428 | 0.0681 | 0.248 | 0.088 | 0.32 | 0.132 | 0.346 | 0.144 | 0.353 | 0.144 | 0.381 | 0.131 | 0.354 | 0.268 | – | 0.428 | 0.0814 | – | 0.208 |
| NC(C(=O)O)c1ccc(C(=O)O)cc1 (stereo not drawn) | – | > 100 | – | > 100 | – | > 100 | – | > 100 | – | > 100 | – | > 100 | – | > 100 | > 100 | – | > 100 | – | – | – |
| NS(=O)(=O)c1ccc(N=Nc2c(=O)[nH]c3ccc4[nH]cccc4c23)cc1 | 0.694 | > 25 | 0.376 | 0.913 | 0.671 | 3.77 | 0.409 | > 6.68 | 0.375 | 1.98 | 0.792 | > 25 | 0.295 | 1.46 | > 25 | – | > 25 | 0.313 | – | 0.304 |
| N#CC1([N+](=O)[O-])C=C1c1ccccc1 (stereo not drawn) | – | > 100 | – | > 100 | – | > 100 | – | > 100 | – | > 100 | – | > 100 | – | > 100 | > 100 | – | > 100 | – | – | – |
| Cc1ccc(SSCCCCS(=O)O)cc1 | – | 62.7 | – | 39.7 | – | 55.4 | – | 32 | – | 67.7 | – | > 100 | – | 38.1 | 39.2 | – | 76.1 | – | – | – |
| CC1CC2(C)CC(=O)C1C1C(=O)N(CCN3CCOCC3)C(=O)C12 (stereo not drawn) | > 100 | > 100 | > 100 | > 100 | > 100 | > 100 | > 100 | > 100 | – | – | – | – | > 100 | > 100 | > 100 | > 100 | > 100 | > 100 | > 100 | > 100 |
| CCN(CC)c1ccc(N=C2C=CC(=C(C#N)C#N)c3ccccc32)c(C)c1 | – | 10.9 | – | 8.05 | – | 3.33 | – | 5.63 | – | 3.82 | – | 8.41 | – | – | 3.44 | 2.19 | 4.75 | – | – | – |
